For 15 compounds, Emax and EC50 results are on record in US20200131159A1, “POSITIVE ALLOSTERIC MODULATORS OF THE MUSCARINIC ACETYLCHOLINE RECEPTOR M1” (Vanderbilt University, priority 2018, published 2020).

The assay addresses T1, human mAChR M1 (Homo sapiens, UniProt P11229).
T1 construct: hM1 and hM4 cDNAs were purchased from Missouri S&T cDNA Resource; host or cells: CHO-K1 cells, stably transfected with Lipofectamine2000
T1 sequence (P11229 1-460): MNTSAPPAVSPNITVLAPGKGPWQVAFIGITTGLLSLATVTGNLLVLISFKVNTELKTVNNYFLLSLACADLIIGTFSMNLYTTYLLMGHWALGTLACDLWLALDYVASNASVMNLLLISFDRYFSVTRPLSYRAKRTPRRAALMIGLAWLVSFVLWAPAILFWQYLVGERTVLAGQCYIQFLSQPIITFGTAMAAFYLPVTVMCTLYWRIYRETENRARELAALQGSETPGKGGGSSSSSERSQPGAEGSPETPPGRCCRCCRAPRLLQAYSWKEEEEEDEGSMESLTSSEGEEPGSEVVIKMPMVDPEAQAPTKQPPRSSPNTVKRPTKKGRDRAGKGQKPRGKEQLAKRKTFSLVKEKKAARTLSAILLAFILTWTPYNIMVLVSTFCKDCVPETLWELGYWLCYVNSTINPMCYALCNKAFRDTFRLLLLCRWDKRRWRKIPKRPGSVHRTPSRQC
Put plainly: mAChR M1 cell-based functional assay (calcium mobilization, PAM mode, EC20 acetylcholine). The conditions noted are these: CHO-K1 cells expressing hM1, calcium flux (Fluo-4); for Emax: EC20 acetylcholine response; for EC50: concentration-dependent increase in the EC20 acetylcholine response. The text has this:
Chinese hamster ovary (CHO-K1) cells stably expressing rat (r)M1 were purchased from the American Type Culture Collection and cultured according to their indicated protocol. CHO cells stably expressing human (h)M2, hM3, and hM5 were described previously (Levey, et al., 1991); hM1 and hM4 cDNAs were purchased from Missouri S&T cDNA Resource; rM4 cDNA was provided by T. I. Bonner (National Institutes of Health, Bethesda, Md.). rM2 and rM3 were cloned from a rat brain cDNA library and sequence verified. hM1, rM2, rM3, hM4, and rM4 cDNAs were used to stably transfect CHO-K1 cells purchased from the American Type Culture Collection using Lipofectamine2000. To make stable rM2, hM2, rM3, hM4, and rM4 cell lines for use in calcium mobilization assays, these cells also were stably transfected with a chimeric G-protein (Gqi5) (provided by B. R. Conklin, University of California, San Francisco) using Lipofectamine 2000. rM1, hM1, rM3, hM3, rM5, and hM5 cells were grown in Ham's F-12 medium containing 10% heat-inactivated fetal bovine serum (FBS), 20 mM HEPES, and 50 µg/mL G418 sulfate. rM2-Gqi5, hM2-Gqi5, and hM4-Gqi5 cells were grown in the same medium also containing 500 μg/mL Hygromycin B. Stable rM4-Gqi5 cells were grown in DMEM containing 10% heat-inactivated FBS, 20 mM HEPES, 400 μg/mL G418 sulfate, and 500 μg/mL Hygromycin B.
For high throughput measurement of agonist-evoked increases in intracellular calcium, CHO-K1 cells stably expressing muscarinic receptors were plated in growth medium lacking G418 and hygromycin at 15,000 cells/20 μL/well in Greiner 384-well black-walled, tissue culture (TC)-treated, clear-bottom plates (VWR). Cells were incubated overnight at 37° C. and 5% CO2. The next day, cells were washed using an ELX 405 (BioTek) with four washes (80 μL) of assay buffer then aspirated to 20 μL. Next, 20 μL of 16 μM Fluo-4/acetoxymethyl ester (Invitrogen, Carlsbad, Calif.) prepared as a 2.3 mM stock in DMSO and mixed in a 1:1 ratio with 10% (w/v) Pluronic F-127 and diluted in assay buffer was added to the wells and the cell plates were incubated for 50 min at 37° C. and 5% CO2. Dye was removed by washing with the ELX 405 (four 80 μL washes of assay buffer) then aspirated to 20 μL. Compound master plates were formatted in an 11 point CRC format (1:3 dilutions) in 100% DMSO with a starting concentration of 10 mM using the BRAVO liquid handler (Agilent). Test compound CRCs were then transferred to daughter plates (240 nL) using the Echo acoustic plate reformatter (Labcyte, Sunnyvale, Calif.) and then diluted into assay buffer (40 μL) to a 2× stock using a Thermo Fisher Combi (Thermo Fisher Scientific, Waltham, Mass.).
Calcium flux was measured using the Functional Drug Screening System (FDSS) 6000 (Hamamatsu Corporation, Tokyo, Japan) as an increase in the fluorescent static ratio. Compounds were applied to cells (20 μL, 2×) using the automated system of the FDSS 6000 at 4 s into the 300 s protocol and the data were collected at 1 Hz. […] Agonist activity was analyzed as a concentration-dependent increase in calcium mobilization upon compound addition. Emax values for agonist activity are expressed relative to the maximum for acetylcholine. Positive allosteric modulator activity was analyzed as a concentration-dependent increase in the EC20 acetylcholine response. Antagonist activity was analyzed as a concentration-dependent decrease in the […] acetylcholine response. Concentration-response curves were generated using a four-parameter logistical equation in XLfit curve fitting software (IDBS, Bridgewater, N.J.) for Excel (Microsoft, Redmond, Wash.) or Prism (GraphPad Software, Inc., San Diego, Calif.).
Activity (EC50 and Emax) was determined in the mAChR M1 cell-based functional assay as described above and the data are shown in Table 2. The compound numbers correspond to the compound numbers used in Table 1.

The structures appear in SMILES notation.

The Emax is the greatest response seen or fitted, relative to the assay's reference. What is called EC50 is the concentration that produces a half-maximal response. `Cn1cc2c(-c3cc(F)c(Cc4cc(C(=O)N[C@H]5CCOC[C@@H]5O)c5ncccc5c4)c(F)c3)cccc2n1` [compound 21, 6-[[2,6-difluoro-4-(2-methylindazol-4-yl)phenyl]methyl]-N-[(3R,4S)-3-hydroxytetrahydropyran-4-yl]quinoline-8-carboxamide]: the maximal response (Emax) worked out at 67% and the EC50 was 3.14 µM.
The corresponding values for `Cn1cc2c(-c3cc(F)c(Cc4cc(C(=O)N[C@H]5CCCC[C@@H]5O)c5ncccc5c4)c(F)c3)cccc2n1` [compound 22, 6-[[2,6-difluoro-4-(2-methylindazol-4-yl)phenyl]methyl]-N-[(1S,2S)-2-hydroxycyclohexyl]quinoline-8-carboxamide] are 42% and 5.71 µM.
On to `Cc1c(Cc2ccc(-n3cccn3)cc2)cc(C(=O)N[C@H]2CCOC[C@@H]2O)c2ncccc12` [compound 23, N-[(3R,4S)-3-hydroxytetrahydropyran-4-yl]-5-methyl-6-[(4-pyrazol-1-ylphenyl)methyl]quinoline-8-carboxamide], for which the Emax came to 77% and the EC50 turned out to be 0.108 µM.
With `Cc1c(Cc2ccc(-n3cccn3)cc2)cc(C(=O)N[C@H]2CCCCC[C@@H]2O)c2ncccc12` [compound 24, N-[(1S,2S)-2-hydroxycycloheptyl]-5-methyl-6-[(4-pyrazol-1-ylphenyl)methyl]quinoline-8-carboxamide], the Emax was 66%.
For the compound `Cc1c(Cc2ccc(-n3cccn3)cc2)cc(C(=O)N[C@H]2CCCC[C@@H]2O)c2ncccc12` [compound 25, N-[(1S,2S)-2-hydroxycyclohexyl]-5-methyl-6-[(4-pyrazol-1-ylphenyl)methyl]quinoline-8-carboxamide], the Emax came to 81% and the EC50 was found to be 0.386 µM.
In the same order, the values of `Cc1c(Cc2ccc(-n3cccn3)cc2)cc(C(=O)N[C@H]2CCC[C@@H]2O)c2ncccc12` [compound 26, N-[(1S,2S)-2-hydroxycyclopentyl]-5-methyl-6-[(4-pyrazol-1-ylphenyl)methyl]quinoline-8-carboxamide] are 81% and 0.958 µM.
For `Cc1c(Cc2ccc(-n3cccn3)cc2)cc(C(=O)N[C@H]2CC[C@@H]2O)c2ncccc12` [compound 27, N-[(1S,2S)-2-hydroxycyclobutyl]-5-methyl-6-[(4-pyrazol-1-ylphenyl)methyl]quinoline-8-carboxamide], the Emax was 73% and the EC50 is 1.71 µM.
With `Cc1c(Cc2ccc(-n3cccn3)cc2)cc(C(=O)NC2CCOCC2)c2ncccc12` [compound 28, 5-methyl-6-[(4-pyrazol-1-ylphenyl)methyl]-N-tetrahydropyran-4-yl-quinoline-8-carboxamide], the Emax stood at 41% and the EC50 is 2.25 µM.
The corresponding values for `Cc1c(Cc2ccc(-c3ccn(C)n3)nc2)cc(C(=O)N[C@H]2CCOC[C@@H]2O)c2ncccc12` [compound 29, N-[(3R,4S)-3-hydroxytetrahydropyran-4-yl]-5-methyl-6-[[6-(1-methylpyrazol-3-yl)-3-pyridyl]methyl]quinoline-8-carboxamide] are 72% and 0.197 µM.
In the same order, the values of `Cc1c(Cc2ccc(-c3ccn(C)n3)nc2)cc(C(=O)N[C@H]2CCCC[C@@H]2O)c2ncccc12` [compound 30, N-[(1S,2S)-2-hydroxycyclohexyl]-5-methyl-6-[[6-(1-methylpyrazol-3-yl)-3-pyridyl]methyl]quinoline-8-carboxamide] are 72% and 0.356 µM.
In the same order, the values of `Cc1c(Cc2ccc(-c3ccn(C)n3)nc2)cc(C(=O)NC2CCOCC2)c2ncccc12` [compound 31, 5-methyl-6-[[6-(1-methylpyrazol-3-yl)-3-pyridyl]methyl]-N-tetrahydropyran-4-yl-quinoline-8-carboxamide] are 67% and 4.39 µM.
Take `Cc1nc(-c2ccc(Cc3cc(C(=O)N[C@H]4CCOC[C@@H]4O)c4ncccc4c3C)cc2)co1` [compound 32, N-[(3R,4S)-3-hydroxytetrahydropyran-4-yl]-5-methyl-6-[[4-(2-methyloxazol-4-yl)phenyl]methyl]quinoline-8-carboxamide]: the Emax worked out at 69% and the EC50 was 0.336 µM.
In the same order, the values of `Cc1nc(-c2ccc(Cc3cc(C(=O)N[C@H]4CCCCC[C@@H]4O)c4ncccc4c3C)cc2)co1` [compound 33, N-[(1S,2S)-2-hydroxycycloheptyl]-5-methyl-6-[[4-(2-methyloxazol-4-yl)phenyl]methyl]quinoline-8-carboxamide] are 75% and 2.04 µM.
Regarding `Cc1nc(-c2ccc(Cc3cc(C(=O)N[C@H]4CCCC[C@@H]4O)c4ncccc4c3C)cc2)co1` [compound 34, N-[(1S,2S)-2-hydroxycyclohexyl]-5-methyl-6-[[4-(2-methyloxazol-4-yl)phenyl]methyl]quinoline-8-carboxamide], the Emax was 74% and the concentration for a half-maximal effect (EC50) was 0.562 µM.
The corresponding values for `Cc1nc(-c2ccc(Cc3cc(C(=O)NC4CCOCC4)c4ncccc4c3C)cc2)co1` [compound 35, 5-methyl-6-[[4-(2-methyloxazol-4-yl)phenyl]methyl]-N-tetrahydropyran-4-yl-quinoline-8-carboxamide] are 38% and 1.37 µM.
